Experiments:
[1] = Pharmacokinetics in patients after 160 mg regorafenib co-precipitate tablet; details: analyte in plasma, 160 mg regorafenib co-precipitate tablet daily, day 21, n = 9, geometric mean
[2] = Metabolite profile, incubation of [14C]regorafenib with liver microsomes (mouse); format: in vitro ADME, NMRI mouse; details: [14C]regorafenib 20 μM, liver microsomes 0.5 mg/mL, 60 min
Description: N-oxide (M-2), hydroxymethyl (M-3), de-methylated (M-4) and N-oxide-demethylated (M-5) metabolites of the fluoro-substituted diaryl urea of Formula (I) are shown below. They were identified as metabolites of regorafenib in vitro upon incubation with liver enzymes of various mammalian species (man, dog, rat, mouse). Studies reveal that its metabolites show high protein binding in man and animal species (data not shown). [table]

Flk-1 (murine VEGFR-2) = target: T1, Flk-1 (murine VEGFR-2) (Mus musculus, UniProt P35918); assay: Flk-1 (murine VEGFR-2) biochemical assay (TR-FRET); details: in words
T1 construct: 7 nM Flk-1 (kinase domain)
T1 sequence (P35918 832-1160 limits assumed): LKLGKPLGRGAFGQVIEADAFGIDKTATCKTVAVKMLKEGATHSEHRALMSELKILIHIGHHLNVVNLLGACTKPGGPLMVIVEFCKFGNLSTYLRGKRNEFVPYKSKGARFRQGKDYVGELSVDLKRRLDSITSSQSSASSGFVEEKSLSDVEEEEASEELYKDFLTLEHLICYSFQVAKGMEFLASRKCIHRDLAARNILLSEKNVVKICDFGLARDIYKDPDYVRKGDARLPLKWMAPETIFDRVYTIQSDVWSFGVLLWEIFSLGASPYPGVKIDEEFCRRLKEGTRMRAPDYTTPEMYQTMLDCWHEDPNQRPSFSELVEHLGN
Description: This assay was performed in 96-well opaque plates (Costar 3915) in the TR-FRET format. Reaction conditions are as follows: 10 μM ATP, 25 nM poly GT-biotin, 2 nM Eu-labelled phospho-Tyr Ab, 10 nM APC, 7 nM Flk-1 (kinase domain), 1% DMSO, 50 mM HEPES pH 7.5, 10 mM MgCl2, 0.1 mM EDTA, 0.015% BRIJ, 0.1 mg/mL BSA, 0.1% mercapto-ethanol). Reaction is initiated upon addition of enzyme. Final reaction volume in each well is 100 μL. Plates are read at both 615 and 665 nM on a Perkin Elmer Victor V Multilabel counter at about 1.5-2.0 hours after reaction initiation. Signal is calculated as a ratio: (665 nm/615 nm)*10000 for each well.
For IC50 generation for both PDGFR and Flk-1, compounds were added prior to the enzyme initiation. A 50-fold stock plate was made with compounds serially diluted 1:3 in a 50% DMSO/50% dH2O solution. […] The data were expressed as percent inhibition: % inhibition=100−((Signal with inhibitor-background)/(Signal without inhibitor-background))*100

## CNC(=O)c1cc(Oc2ccc(NC(=O)Nc3ccc(Cl)c(C(F)(F)F)c3)c(F)c2)ccn1 [Example 1, 4{4-[3-(4-chloro-3-trifluoromethylphenyl)-ureido]-3-fluorophenoxy}-pyridine-2-carboxylic acid methylamide]
[1]
  AUC Day 21: 61500 ng·h/mL
  Cmax Day 21: 4170 ng/mL
[2]
  % of radioactivity, NMRI mouse: 57.8%
Flk-1 (murine VEGFR-2)
  inhibition of VEGFR2 kinase: significant inhibition

Source: patent US20130183268A1, “DRUG COMBINATIONS WITH FLUORO-SUBSTITUTED OMEGA-CARBOXYARYL DIPHENYL UREA FOR THE TREATMENT AND PREVENTION OF DISEASES AND CONDITIONS” (BAYER HEALTHCARE LLC, priority 2010, published 2013)
